# Measured values published in patent US7670416B2, “Use of a combination of substances to prevent biofouling organisms” (I-Tech AB, priority 2005, dated 2010).
# Key:
# Ulva = test: algae spore germination test (Ulva biofouling);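 note: ulva spores exposed to test compound, then compound removed and spores germinated in culture medium under fluorescent light, 16 h light and 8 h dark, for 7 days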
# Protocol: (§1) The efficacy of algicides is usually tested by a spore germination test. Algae are collected from the field and grown in the laboratory. […] The water with test compound is then removed and culture medium is added. The spores are left to germinate under fluorescent lamps (50 μm-2s-1 (PAR)), 16 h light, 8 h darkness, for 7 days in a culture medium, which is changed once a day.
# (§2) All the different brands are tested in combination with Catemine 1 for efficacy against both barnacles and algae with the two compounds together or separate. The assays that are be used are the cyprid settling rate assay and the algae germination test.
# algae = conditions: reference (6); target protein lacking within algae; cited from earlier work
# Enteromorpha = test: algae spore germination test (Enteromorpha biofouling); assay type: in vivo
# Protocol: as §1, §2
# Barnacle cyprid larvae = test: cyprid settling rate assay (barnacle biofouling); assay type: in vivo
# Description: The assays that are be used are the cyprid settling rate assay and the algae germination test.
# barnacle cyprids = conditions: reference (6); cited from earlier work
# [1] = 0.1 nM Catemine 1 alone (Table 2)
# [2] = 0.1 nM Catemine 1 alone (Table 4)
# [3] = 1 nM Catemine 1 alone (Table 2)
# [4] = 1 nM Catemine 1 alone (Table 4)
# [5] = 10 nM Catemine 1 alone (Table 2)
# [6] = 10 nM Catemine 1 alone (Table 4)
# [7] = 100 nM Catemine 1 alone (Table 2)
# [8] = 100 nM Catemine 1 alone (Table 4)
compound,measurement,setting,value
"Cc1cccc(C(C)c2c[nH]cn2)c1C (racemic) [Catemine 1, (+/−)-4-[1-(2,3-dimethylphenyl)ethyl]-1H-imidazole]",Ulva biofouling (% survival),Ulva; 0.1 nM Catemine 1 alone,100%
same,Ulva biofouling (% survival),Ulva; [1],100%
same,Ulva biofouling (% survival),Ulva; [2],100%
same,Ulva biofouling (% survival),Ulva; 1 nM Catemine 1 alone,100%
same,Ulva biofouling (% survival),Ulva; [3],100%
same,Ulva biofouling (% survival),Ulva; [4],100%
same,Ulva biofouling (% survival),Ulva; 10 nM Catemine 1 alone,100%
same,Ulva biofouling (% survival),Ulva; [5],100%
same,Ulva biofouling (% survival),Ulva; [6],100%
same,Ulva biofouling (% survival),Ulva; 100 nM Catemine 1 alone,100%
same,Ulva biofouling (% survival),Ulva; [7],100%
same,Ulva biofouling (% survival),Ulva; [8],100%
same,effect of algal growth,algae,no effect
same,Enteromorpha biofouling (% survival),Enteromorpha; 0.1 nM Catemine 1 alone,100%
same,Enteromorpha biofouling (% survival),Enteromorpha; 1 nM Catemine 1 alone,100%
same,Enteromorpha biofouling (% survival),Enteromorpha; 10 nM Catemine 1 alone,100%
same,Enteromorpha biofouling (% survival),Enteromorpha; 100 nM Catemine 1 alone,100%
same,Barnacle biofouling (% settlement),Barnacle cyprid larvae; 0.1 nM Catemine 1 alone,100%
same,Barnacle biofouling (% settlement),Barnacle cyprid larvae; [1],100%
same,Barnacle biofouling (% settlement),Barnacle cyprid larvae; 0.1 nM Catemine 1 alone (Table 3),100%
same,Barnacle biofouling (% settlement),Barnacle cyprid larvae; [2],100%
same,Barnacle biofouling (% settlement),Barnacle cyprid larvae; 1 nM Catemine 1 alone,10%
same,Barnacle biofouling (% settlement),Barnacle cyprid larvae; [3],10%
same,Barnacle biofouling (% settlement),Barnacle cyprid larvae; 1 nM Catemine 1 alone (Table 3),10%
same,Barnacle biofouling (% settlement),Barnacle cyprid larvae; [4],10%
same,Barnacle biofouling (% settlement),Barnacle cyprid larvae; 10 nM Catemine 1 alone,0%
same,Barnacle biofouling (% settlement),Barnacle cyprid larvae; [5],0%
same,Barnacle biofouling (% settlement),Barnacle cyprid larvae; 10 nM Catemine 1 alone (Table 3),0%
same,Barnacle biofouling (% settlement),Barnacle cyprid larvae; [6],0%
same,Barnacle biofouling (% settlement),Barnacle cyprid larvae; 100 nM Catemine 1 alone,0%
same,Barnacle biofouling (% settlement),Barnacle cyprid larvae; [7],0%
same,Barnacle biofouling (% settlement),Barnacle cyprid larvae; 100 nM Catemine 1 alone (Table 3),0%
same,Barnacle biofouling (% settlement),Barnacle cyprid larvae; [8],0%
same,action on barnacle cyprids,barnacle cyprids,specific action
"CN(C)S(=O)(=O)N(SC(F)(Cl)Cl)c1ccccc1 [Dichlofluanid, N′-dimethyl-N-phenylsulphamide]",Ulva biofouling (% survival),Ulva; 0.1 μg/ml Dichlofluanid alone,100%
same,Ulva biofouling (% survival),Ulva; 1 μg/ml Dichlofluanid alone,90%
same,Ulva biofouling (% survival),Ulva; 10 μg/ml Dichlofluanid alone,10%
same,Ulva biofouling (% survival),Ulva; 100 μg/ml Dichlofluanid alone,0%
same,Barnacle biofouling (% settlement),Barnacle cyprid larvae; 0.1 μg/ml Dichlofluanid alone,100%
same,Barnacle biofouling (% settlement),Barnacle cyprid larvae; 1 μg/ml Dichlofluanid alone,50%
same,Barnacle biofouling (% settlement),Barnacle cyprid larvae; 10 μg/ml Dichlofluanid alone,25%
same,Barnacle biofouling (% settlement),Barnacle cyprid larvae; 100 μg/ml Dichlofluanid alone,0%
"CN(C)C(=O)Nc1ccc(Cl)c(Cl)c1 [Diuron, 3-(3,4-dichlorophenyl)-1,1-dimethylurea]",Ulva biofouling (% survival),Ulva; 0.1 μM Diuron alone,100%
same,Ulva biofouling (% survival),Ulva; 1 μM Diuron alone,90%
same,Ulva biofouling (% survival),Ulva; 10 μM Diuron alone,50%
same,Ulva biofouling (% survival),Ulva; 100 μM Diuron alone,0%
same,Barnacle biofouling (% settlement),Barnacle cyprid larvae; 0.1 μM Diuron alone,100%
same,Barnacle biofouling (% settlement),Barnacle cyprid larvae; 1 μM Diuron alone,100%
same,Barnacle biofouling (% settlement),Barnacle cyprid larvae; 10 μM Diuron alone,100%
same,Barnacle biofouling (% settlement),Barnacle cyprid larvae; 100 μM Diuron alone,100%
"CSc1nc(NC2CC2)nc(NC(C)(C)C)n1 [Irgarol, 2-methylthio-4-tert-butylamino-6-cyclopropylamino-s-triziane]",Enteromorpha biofouling (% survival),Enteromorpha; 0.1 nM Irgarol alone,100%
same,Enteromorpha biofouling (% survival),Enteromorpha; 1 nM Irgarol alone,100%
same,Enteromorpha biofouling (% survival),Enteromorpha; 10 nM Irgarol alone,50%
same,Enteromorpha biofouling (% survival),Enteromorpha; 100 nM Irgarol alone,0%
same,Barnacle biofouling (% settlement),Barnacle cyprid larvae; 0.1 nM Irgarol alone,100%
same,Barnacle biofouling (% settlement),Barnacle cyprid larvae; 1 nM Irgarol alone,100%
same,Barnacle biofouling (% settlement),Barnacle cyprid larvae; 10 nM Irgarol alone,100%
same,Barnacle biofouling (% settlement),Barnacle cyprid larvae; 100 nM Irgarol alone,100%
"CCCCCCCCn1sc(Cl)c(Cl)c1=O [SeaNine, 4,5-dichloro-2-n-octyl-3(2H)-isothiazolone]",Ulva biofouling (% survival),Ulva; 0.1 nM SeaNine alone,100%
same,Ulva biofouling (% survival),Ulva; 1 nM SeaNine alone,50%
same,Ulva biofouling (% survival),Ulva; 10 nM SeaNine alone,10%
same,Ulva biofouling (% survival),Ulva; 100 nM SeaNine alone,0%
same,Barnacle biofouling (% settlement),Barnacle cyprid larvae; 0.1 nM SeaNine alone,100%
same,Barnacle biofouling (% settlement),Barnacle cyprid larvae; 1 nM SeaNine alone,50%
same,Barnacle biofouling (% settlement),Barnacle cyprid larvae; 10 nM SeaNine alone,10%
same,Barnacle biofouling (% settlement),Barnacle cyprid larvae; 100 nM SeaNine alone,0%
